Experiment: release of rapamycin in vivo

- duration of the release of rapamycin: 4 to 6 weeks
SMILES: CO[C@H]1C[C@@H]2CC[C@@H](C)[C@@](O)(O2)C(=O)C(=O)N2CCCC[C@H]2C(=O)O[C@H]([C@H](C)C[C@@H]2CC[C@@H](O)[C@H](OC)C2)CC(=O)[C@H](C)/C=C(\C)[C@@H](O)[C@@H](OC)C(=O)[C@H](C)C[C@H](C)/C=C/C=C/C=C/1C [rapamycin]
